Active and inactive are the calls of the source. No cut-off for these calls is given here.
Columns and labels:
RAW264 [1] = assay: Inhibition of sRANKL-induced TRAP activity in mouse RAW264 cells at 20 uM by p-nitrophenolate release based TRAP assay; assay type: functional, cell-based
[2] = Inhibition of sRANKL-induced TRAP activity in mouse RAW264 cells by p-nitrophenolate release based TRAP assay; assay type: functional, cell-based; conditions: RAW264.7
RAW264 [3] = assay: Inhibition of sRANKL-induced osteoclastogenesis in mouse RAW264 cells assessed as reduction in TRAP-positive multinuclear osteoclasts formation at 20 uM incubated for 4 days by TRAP assay; assay type: functional, cell-based
[4] = Inhibition of chymotrypsin-like activity of proteasome in rat liver using Suc-Leu-Leu-Val-Tyr-MCA fluorogenic substrate
Mus musculus [5] = organism: Mus musculus; assay: Inhibition of sRANKL-induced […] degradation in mouse RAW264 cells at 20 uM pre-treated for 2 hrs before sRANKL stimulation measured 15 mins after sRANKL stimulation by Western blotting method; assay type: cell-based
Mus musculus [6] = organism: Mus musculus; assay: Inhibition of sRANKL-induced […] degradation in mouse RAW264 cells at 10 to 50 uM pre-treated for 2 hrs before sRANKL stimulation measured 15 mins after sRANKL stimulation by Western blotting method; assay type: cell-based
Mus musculus [7] = organism: Mus musculus; assay: Inhibition of sRANKL-induced AKT phosphorylation in mouse RAW264 cells at 20 uM pre-treated for 2 hrs before sRANKL stimulation measured 15 mins after sRANKL stimulation by Western blotting method; assay type: cell-based

For C[C@@]12CCC(=O)c3coc(c31)C(=O)c1cc3c(cc12)C(=O)C=CC3=O [HELENAQUINONE], the inhibition (RAW264 [1]) was “Active”, the IC50 [2] was 2000 nM and the inhibition (RAW264 [3]) was “Active”. The IC50 [4] was 600 nM, the inhibition (Mus musculus [5]) was “Active” and the inhibition (Mus musculus [6]) was “Active”. The inhibition (Mus musculus [7]) was “Active”.

From ChEMBL document CHEMBL3351929, “Halenaquinone inhibits RANKL-induced osteoclastogenesis” (Bioorg Med Chem Lett, 2014)
